Source: patent US9408387B2, “Safening 6-amino-2-(substituted phenyl)-5-substituted-4-pyrimidinecarboxylate herbicide injury on cereal crops” (Dow AgroSciences LLC, priority 2009, dated 2016)

Experiments:
Assay type in all cases: in vivo
[1] = test system: spring wheat (Triticum aestivum L; TRZAS); assay: Postemergence herbicidal safening in cereal crops, greenhouse, visual injury: spring wheat; conditions: Triticum aestivum, post-emergence, 480 h, 20-22 d, read-out: TRZAS Ob (visual injury); for pest or weed control at 8.75 g/ha: herbicide alone 8.75 g/ha; for pest or weed control at 35 g/ha: herbicide alone 35 g ae/ha; for pest or weed control at 70 g/ha: herbicide alone 70 g/ha; for pest or weed control at 140 g/ha: herbicide alone 140 g/ha
Method: (§1) Evaluation of Postemergence Herbicidal Safening in Cereal Crops
(§2) Seeds of the desired test plant species were planted in Sun Gro MetroMix® 306 planting mixture, which typically has a pH of 6.0 to 6.8 and an organic matter content of about 30 percent, in plastic pots with a surface area of 103.2 square centimeters (cm^2). When required to ensure good germination and healthy plants, a fungicide treatment and/or other chemical or physical treatment was applied. The plants were grown for 7-36 days (d) in a greenhouse with an approximate 14-hour (h) photoperiod which was maintained at about 18° C. during the day and 17° C. during the night. Nutrients and water were added on a regular basis and supplemental lighting was provided with overhead metal halide 1000-Watt lamps as necessary. The plants were employed for testing when they reached the second or third true leaf stage.
(§3) Treatments consisted of the acids or esters of compounds 1-10 and cloquintocet-mexyl (CQC-M), fenchlorazole-ethyl, mefenpyr-diethyl alone and in combination. Weighed amounts of acid or methyl esters of the compounds of formula (I) were dissolved in a volume of 97:3 v/v acetone/dimethylsulfoxide (DMSO) to obtain concentrated solutions. […] The concentrated solutions of the test compound were diluted with the addition of an aqueous mixture containing acetone, water, isopropyl alcohol, DMSO, Agri-Dex crop oil concentrate, and Triton® X-77 surfactant in a 64.7:26.0:6.7:2.0:0.7:0.01 v/v ratio. Test compounds were diluted to the appropriate application rate with a dilution solution which was prepared by mixing the appropriate volume of 97:3 v/v acetone/DMSO and the appropriate volume of an aqueous mixture containing acetone, water, isopropyl alcohol, DMSO, Agri-Dex crop oil concentrate, and Triton® X-77 surfactant in a 64.7:26.0:6.7:2.0:0.7:0.01 v/v ratio. Compound requirements are based upon a 12 mL application volume at a rate of 187 liters per hectare (L/ha). The concentrated solutions of the safener were prepared following the same procedure. Weighed amounts of safener were dissolved in a volume of 97:3 v/v acetone/DMSO to obtain concentrated safener solutions.
(§4) Spray solutions of the herbicide safener and test compound mixtures were prepared by adding the concentrated solutions to the appropriate amount of dilution solution to form 12 mL spray solution with active ingredients in combinations.
(§5) Formulated compounds were applied to the plant material with an overhead Mandel track sprayer equipped with 8002E nozzles calibrated to deliver 187 L/ha over an application area of 0.503 square meters (m^2) at a spray height of 18 inches (43 centimeters (cm)) above average plant canopy. Control plants were sprayed in the same manner with the solvent blank.
(§6) The treated plants and control plants were placed in a greenhouse as described above and watered by sub-irrigation to prevent wash-off of the test compounds. After 20-22 d, the condition of the test plants as compared with that of the control plants was determined visually and scored on a scale of 0 to 100 percent where 0 corresponds to no injury and 100 corresponds to complete kill.
(§7) Colby's equation was used to determine the herbicidal effects expected from the mixtures (Colby, S. R. Calculation of the synergistic and antagonistic response of herbicide combinations. Weeds 1967, 15, 20-22.).
(§8) The following equation was used to calculate the expected activity of mixtures containing two active ingredients, A and B: Expected=A+B−(A×B/100)
(§9) A=observed efficacy of active ingredient A at the same concentration as used in the mixture.
(§10) B=observed efficacy of active ingredient B at the same concentration as used in the mixture.

[2] = test system: spring barley (Hordeum vulgare L; HORVS); assay: Postemergence herbicidal safening in cereal crops, greenhouse, visual injury: spring barley; conditions: Hordeum vulgare, post-emergence, 480 h, 20-22 d, read-out: HORVS Ob (visual injury); for pest or weed control at 8.75 g/ha: herbicide alone 8.75 g/ha; for pest or weed control at 35 g/ha: herbicide alone 35 g ae/ha; for pest or weed control at 70 g/ha: herbicide alone 70 g/ha; for pest or weed control at 140 g/ha: herbicide alone 140 g/ha
Method: as §1, §2, §3, §4, §5, §6, §7, §8, §9, §10

[3] = test system: winter wheat (Triticum aestivum L; TRZAW); assay: Postemergence herbicidal safening in cereal crops, greenhouse, visual injury: winter wheat; conditions: herbicide alone 8.75 g/ha; 20-22 d
Method: as §1, §2, §3, §4, §5, §6, §7, §8, §9, §10

[4] = test system: winter barley (Hordeum vulgare L; HORVW); assay: Postemergence herbicidal safening in cereal crops, greenhouse, visual injury: winter barley; conditions: herbicide alone 8.75 g/ha; 20-22 d
Method: as §1, §2, §3, §4, §5, §6, §7, §8, §9, §10

[5] = test system: durum wheat (Triticum durum L; TRZDU); assay: Postemergence herbicidal safening in cereal crops, greenhouse, visual injury: durum wheat; conditions: herbicide alone 8.75 g/ha; 20-22 d
Method: as §1, §2, §3, §4, §5, §6, §7, §8, §9, §10

[6] = test system: purple deadnettle (Lamium purpureum L; LAMPU); assay: Postemergence herbicidal activity, greenhouse, visual injury: purple deadnettle; conditions: Lamium purpureum, post-emergence, 480 h, 20-22 d, read-out: LAMPU Ob (visual injury); for pest or weed control at 35 g/ha: herbicide alone 35 g ae/ha; for pest or weed control at 70 g/ha: herbicide alone 70 g/ha; for pest or weed control at 140 g/ha: herbicide alone 140 g/ha
Method: as §1, §2, §3, §4, §5, §6, §7, §8, §9, §10

[7] = test system: kochia (Kochia scoparia L; KCHSC); assay: Postemergence herbicidal activity, greenhouse, visual injury: kochia; conditions: 20-22 d
Method: as §1, §2, §3, §4, §5, §6, §7, §8, §9, §10

[8] = test system: corn poppy (Papaver rhoeas L; PAPRH); assay: Postemergence herbicidal activity, greenhouse, visual injury: corn poppy; conditions: 20-22 d
Method: as §1, §2, §3, §4, §5, §6, §7, §8, §9, §10

[9] = test system: bird's-eye speedwell (Veronica persica L; VERPE); assay: Postemergence herbicidal activity, greenhouse, visual injury: bird's-eye speedwell; conditions: herbicide alone 8.75 g/ha; 20-22 d
Method: as §1, §2, §3, §4, §5, §6, §7, §8, §9, §10

CIRAR = assay: Postemergence herbicidal activity, greenhouse, visual injury: CIRAR; conditions: 20-22 d
Method: as §1, §2, §3, §4, §5, §6, §7, §8, §9, §10

SASKR = assay: Postemergence herbicidal activity, greenhouse, visual injury: SASKR; conditions: 20-22 d
Method: as §1, §2, §3, §4, §5, §6, §7, §8, §9, §10

MATCH = assay: Postemergence herbicidal activity, greenhouse, visual injury: MATCH; conditions: 20-22 d
Method: as §1, §2, §3, §4, §5, §6, §7, §8, §9, §10

| Structure (SMILES) | pest or weed control at 8.75 g/ha [1] | pest or weed control at 35 g/ha [1] | pest or weed control at 8.75 g/ha [2] | pest or weed control at 35 g/ha [2] | TRZAW Ob (visual injury) [3] | HORVW Ob (visual injury) [4] | TRZDU Ob (visual injury) [5] | pest or weed control at 35 g/ha [6] | pest or weed control at 70 g/ha [1] | pest or weed control at 140 g/ha [1] | pest or weed control at 70 g/ha [2] | pest or weed control at 140 g/ha [2] | pest or weed control at 70 g/ha [6] | pest or weed control at 140 g/ha [6] | PAPRH Ob (visual injury) ([8]; herbicide alone 70 g/ha) | PAPRH Ob (visual injury) ([8]; herbicide alone 140 g/ha) | CIRAR Ob (visual injury) (CIRAR; herbicide alone 70 g/ha) | CIRAR Ob (visual injury) (CIRAR; herbicide alone 140 g/ha) | KCHSC Ob (visual injury) ([7]; herbicide alone 70 g/ha) | KCHSC Ob (visual injury) ([7]; herbicide alone 140 g/ha) | also measured |
| --- | --- | --- | --- | --- | --- | --- | --- | --- | --- | --- | --- | --- | --- | --- | --- | --- | --- | --- | --- | --- | --- |
| C=Cc1c(N)nc(-c2ccc(Cl)c(OC)c2F)nc1C(=O)O [Compound 2, 6-amino-2-(4-chloro-2-fluoro-3-methoxyphenyl)-5-vinylpyrimidine-4-carboxylic acid] | 41% | 80% | 24% | 68% | 43% | 18% | 30% | 77% |  |  |  |  |  |  |  |  |  |  |  |  | KCHSC Ob (visual injury) ([7]; herbicide alone 8.75 g/ha): 40%; PAPRH Ob (visual injury) ([8]; herbicide alone 8.75 g/ha): 80%; VERPE Ob (visual injury) [9]: 70% |
| COC(=O)c1nc(-c2ccc(Cl)c(OC)c2F)nc(N)c1OC [Compound 4, 6-amino-2-(4-chloro-2-fluoro-3-methoxyphenyl)-5-methoxypyrimidine-4-carboxylic acid methyl ester] | 33% | 80% | 25% | 75% | 22% | 7% | 18% | 100% |  |  |  |  |  |  |  |  |  |  |  |  |  |
| C=Cc1c(N)nc(-c2ccc(Cl)c(OC)c2F)nc1C(=O)OC [Compound 5, 6-amino-2-(4-chloro-2-fluoro-3-methoxyphenyl)-5-vinylpyrimidine-4-carboxylic acid methyl ester] |  | 25% |  | 10% |  |  |  | 75% | 18% | 40% | 8% | 0% | 95% | 95% | 89% | 90% | 84% | 85% |  |  |  |
| C=Cc1c(N)nc(-c2ccc(Cl)c(N(C)C)c2F)nc1C(=O)O [Compound 7, 6-amino-2-(4-chloro-3-dimethylamino-2-fluorophenyl)-5-vinylpyrimidine-4-carboxylic acid] |  | 75% |  | 70% |  |  |  | 52% | 60% | 70% | 30% | 45% |  |  |  |  | 80% | 85% | 65% | 75% | SASKR Ob (visual injury) (SASKR; herbicide alone 70 g/ha): 75%; SASKR Ob (visual injury) (SASKR; herbicide alone 140 g/ha): 80% |
| COc1c(N)nc(-c2ccc(Cl)c(OC)c2F)nc1C(=O)O [Compound 8, 6-amino-2-(4-chloro-2-fluoro-3-methoxyphenyl)-5-methoxypyrimidine-4-carboxylic acid] |  | 83% |  | 75% |  |  |  | 100% | 90% | 95% | 50% | 85% | 100% | 100% | 100% | 100% |  |  | 90% | 100% |  |
| COc1c(N)nc(-c2ccc(Cl)c(F)c2)nc1C(=O)O [Compound 9, 6-amino-2-(4-chloro-3-fluorophenyl)-5-methoxypyrimidine-4-carboxylic acid] |  |  |  |  |  |  |  |  | 60% | 70% | 50% | 70% | 95% | 100% |  |  |  |  | 100% | 100% | MATCH Ob (visual injury) (MATCH; herbicide alone 70 g/ha): 93%; MATCH Ob (visual injury) (MATCH; herbicide alone 140 g/ha): 97% |
